# Experimental data as given in patent US5189050A, “Fermentation analogs of Virginiamycin M1 to treat panic and anxiety disorder” (Merck & Co., Inc., priority 1991, dated 1993).
# How the values were obtained:
# [1] = system: CCK-A receptors; details: cited from earlier work
# [2] = system: CCK-B receptors; details: cited from earlier work
# [3] = system: stomach gastrin receptor; details: cited from earlier work
# [4] = crude rat brain synaptosomal fraction (title of cited paper); cited from earlier work
# [5] = biological target: T1, Pancreatic CCK Receptor (Rattus norvegicus, UniProt P30551); test: Pancreatic cholecystokinin receptor binding (125I-CCK-8, rat pancreas membranes); details: for IC50: Pancreatic CCK Receptor Binding, rat pancreas, 125I-CCK-8, 37° C., 30 minutes; for effect on the 125I-CCK receptor binding assay: added protease inhibitors
# T1 construct: homogenzing a gram of fresh rat pancreas tissue; from tissue; host or cells: fresh rat pancreas membranes
# T1 sequence (P30551 1-444): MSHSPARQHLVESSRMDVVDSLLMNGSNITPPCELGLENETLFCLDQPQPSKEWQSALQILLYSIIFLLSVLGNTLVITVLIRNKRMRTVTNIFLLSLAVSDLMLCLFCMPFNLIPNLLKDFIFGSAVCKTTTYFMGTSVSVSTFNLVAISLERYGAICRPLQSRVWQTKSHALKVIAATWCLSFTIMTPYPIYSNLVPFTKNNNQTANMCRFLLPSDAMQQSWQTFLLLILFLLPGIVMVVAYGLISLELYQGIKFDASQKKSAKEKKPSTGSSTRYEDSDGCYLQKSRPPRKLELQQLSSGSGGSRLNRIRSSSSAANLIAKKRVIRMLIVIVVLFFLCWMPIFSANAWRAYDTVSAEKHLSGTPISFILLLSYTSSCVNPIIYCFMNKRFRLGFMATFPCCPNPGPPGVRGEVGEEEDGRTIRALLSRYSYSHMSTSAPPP
# Procedure: Pancreatic Cholecystokinin Receptor Binding Assay
# Radiolabeled CCK-8 was purchased from New England Nuclear as ^125 I-CCK-8. Receptor binding was performed according to Innis and Snyder Proc. Natl. Acad. Sci., 77, 6917 (1980), with the minor modification of adding the additional protease inhibitors, phenylmethane sulfonyl fluoride (PMSF) and o-phenanthroline, which have no effect on the ^125 I-CCK receptor binding assay. All assays were performed in triplicate. Pancreatic receptor membranes were prepared by homogenzing a gram of fresh rat pancreas tissue in 30 ml TRIS-HCl (50 mM), pH 7.7 using a Brinkman polytron PT10 (Brinkman). The homogenate was washed twice and collected by centrifugation at 48,000× g at 4° C. for 10 minutes. The membranes were resuspended in assay buffer consisting of 5 mM dithiothieitol, 0.1 mM bacitiacin, 5 mM MgCl2 "H2 O, 0.2% heat denatured BSA, 1.2 mM PMSF and 0.5 mM O-phenanthroline at a concentration of 100 ml per gram of pancreas. […] The reaction mixtures were mixed briefly and placed in a 37° C. water bath with gentle shaking for 30 minutes. The reaction mixtures were then diluted with 4 ml of ice-cold TRIS buffer, pH 7.7, containing 1 mg/ml bovine serum albumin and immediately filtered in Watman G F/B filters. The filters were washed with 3×4 ml of the same buffer and the radioactivity associated with the filters was counted in a Beckman 5500 gamma counter. Broths were prepared by adding two volumes of acetone to original broth; supernatants were freeze dried after centrifugation at 1500 g for 10 minutes. The dried samples were then brought up in methanol/H2 O (1:1) and ready for assay.
# [6] = system: gram-positive bacteria; details: cited from earlier work
IC50 [5] [µM],Molecule,affinity for CCK-A receptors [1],other results
–,CSCC[C@H](NC(=O)[C@@H](N)Cc1c[nH]c2ccccc12)C(=O)N[C@@H](CC(=O)O)C(=O)N[C@@H](Cc1ccccc1)C(N)=O [CCK-4],lower affinity,affinity for CCK-B receptors [2]: high affinity; potency at stomach gastrin receptor [3]: minimum fully potent CCK sequence
–,CSCC[C@H](NC(=O)[C@H](Cc1ccc(O)cc1)NC(=O)[C@@H](N)CC(=O)O)C(=O)NCC(=O)N[C@@H](Cc1c[nH]c2ccccc12)C(=O)N[C@@H](CCSC)C(=O)N[C@@H](CC(=O)O)C(=O)N[C@@H](Cc1ccccc1)C(N)=O [CCK-8d],lower affinity,–
–,"CSCC[C@H](NC(=O)[C@H](Cc1ccc(OS(=O)(=O)O)cc1)NC(=O)[C@@H](N)CC(=O)O)C(=O)NCC(=O)N[C@@H](Cc1c[nH]c2ccccc12)C(=O)N[C@@H](CCSC)C(=O)N[C@@H](CC(=O)O)C(=O)N[C@@H](Cc1ccccc1)C(N)=O [CCK-8s, H-Asp-Tyr(SO3 H)-Met-Gly-Trp-Met-Asp-Phe-NH2]",high affinity,half-life [4]: less than 1 hour; affinity for CCK-B receptors [2]: high affinity
> 10,CC1=C\C=C\C(=O)Cc2nc(co2)C(=O)N2CCC=C2C(=O)O[C@H](C(C)C)[C@H](C)/C=C/C(=O)NC\C=C\1 [Compound III],–,–
> 10,CC1=C\C=C\[C@H](O)Cc2nc(co2)C(=O)N2CCC=C2C(=O)O[C@H](C(C)C)[C@H](C)/C=C/C(=O)NC\C=C\1 [Compound II],–,–
> 10,CC1=C\C=C\[C@@H](O)Cc2nc(co2)C(=O)N2CCC=C2C(=O)O[C@H](C(C)C)[C@H](C)/C=C/C(=O)NC\C=C\1 [Compound I],–,–
> 100,CC1=C\[C@@H](O)CC(=O)Cc2nc(co2)C(=O)N2CCC=C2C(=O)O[C@H](C(C)C)[C@H](C)/C=C/C(=O)NC\C=C\1 [Virginiamycin M1],–,antibacterial specificity and action [6]: generally specific for gram-positive bacteria and prevent cell multiplication
–,c1cnc2c(c1)ccc1cccnc12 [o-phenanthroline],–,effect on the 125I-CCK receptor binding assay [5]: no effect
–,CSCC[C@H](NC(=O)[C@H](Cc1c[nH]c2ccccc12)NC(=O)CCNC(=O)OC(C)(C)C)C(=O)N[C@@H](CC(=O)O)C(=O)N[C@@H](Cc1ccccc1)C(N)=O [pentagastrin],–,affinity for CCK-B receptors [2]: high affinity
–,"O=S(=O)(F)Cc1ccccc1 [phenylmethane sulfonyl fluoride (PMSF), phenylmethane sulfonyl fluoride]",–,effect on the 125I-CCK receptor binding assay [5]: no effect
–,gastrin,lower affinity,–
